Data as given in ChEMBL document CHEMBL1150766, “Synthesis and in vitro biological activity of retinyl retinoate, a novel hybrid retinoid derivative” (Bioorg Med Chem, 2008).
Activity calls are given as the source filed them. No cut-off for these calls is given here.

Assays:
[1] = Photostability after UV irradiation; format: physicochemical
[2] = Thermal stability at 4 degC after 4 weeks; format: physicochemical; conditions: 672 h
[3] = Thermal stability at 40 degC after 4 weeks; format: physicochemical; conditions: 672 h
[4] = Cytotoxicity against human normal fibroblast after 1 day by MTT assay; format: cell-based; conditions: 24 h
HaCaT [5] = experiment: Decrease in collagenase expression in Coll-CAT gene transfected human HaCaT cells co-transfected with c-Jun relative to control; format: functional
HaCaT [6] = experiment: Decrease in collagenase expression in Coll-CAT gene transfected human HaCaT cells co-transfected with c-Jun and retinoic acid receptor relative to control; format: functional
Fibroblast [7] = experiment: Induction of CRABP 2 mRNA expression in human normal fibroblast at 1 uM by […] relative to control; format: functional
Fibroblast [8] = experiment: Induction of CRABP 2 mRNA expression in human normal fibroblast at 10 uM by […] relative to control; format: functional
[9] = target: T1, Retinoic acid receptor alpha (Homo sapiens) (UniProt P10276); experiment: Increase in transcriptional activity of RARalpha receptor epressed in human HaCaT cells co-transfected with DR5-tk-CAT reporter plasmid assessed as beta-galactosidase activity by CAT-ELISA; format: cell-based
T1 sequence (whole entry): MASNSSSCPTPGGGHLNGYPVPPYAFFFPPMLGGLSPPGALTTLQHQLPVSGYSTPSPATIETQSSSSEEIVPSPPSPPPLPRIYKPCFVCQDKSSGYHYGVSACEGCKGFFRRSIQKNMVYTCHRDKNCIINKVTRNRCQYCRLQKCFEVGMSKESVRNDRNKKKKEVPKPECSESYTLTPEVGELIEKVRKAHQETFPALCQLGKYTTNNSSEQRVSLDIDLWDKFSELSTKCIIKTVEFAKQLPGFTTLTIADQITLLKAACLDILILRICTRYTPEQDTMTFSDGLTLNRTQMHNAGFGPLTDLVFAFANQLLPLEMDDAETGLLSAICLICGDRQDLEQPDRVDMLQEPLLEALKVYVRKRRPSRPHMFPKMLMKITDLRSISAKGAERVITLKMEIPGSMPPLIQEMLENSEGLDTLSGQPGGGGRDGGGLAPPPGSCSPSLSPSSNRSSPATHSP

[10] = Stability in human fibroblasts assessed as retention time after 2 days; format: ADME, cell-based; conditions: fibroblast, 48 h
Fibroblast [11] = experiment: Induction of collagen biosynthesis in human normal fibroblast; format: functional, cell-based
[12] = target: Transcription factor Jun (Homo sapiens) (UniProt P05412); experiment: Inhibition of AP1 expressed in human HaCaT cells transfected with Coll-CAT reporter gene assessed as collagenase expression by CAT-ELISA; format: cell-based
Transcription factor Jun (Homo sapiens), sequence (P05412 whole entry): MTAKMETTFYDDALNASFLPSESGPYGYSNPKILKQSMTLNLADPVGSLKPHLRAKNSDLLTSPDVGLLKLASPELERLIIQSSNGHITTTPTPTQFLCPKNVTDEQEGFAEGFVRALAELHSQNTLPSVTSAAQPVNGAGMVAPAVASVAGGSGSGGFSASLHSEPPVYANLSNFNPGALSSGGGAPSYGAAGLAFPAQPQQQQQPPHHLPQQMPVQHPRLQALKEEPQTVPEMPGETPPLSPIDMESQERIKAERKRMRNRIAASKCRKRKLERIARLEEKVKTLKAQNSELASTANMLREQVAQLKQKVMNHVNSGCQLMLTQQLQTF

Activity [1] | Stability [2] | Activity [3] | Activity [9] | Activity [10] [min] | Stability [1] | Activity [12] | Structure (SMILES) | IC50 [4] [µM] | inhibition (INH) (HaCaT [5]) [%] | inhibition (INH) (HaCaT [6]) [%] | Activity (Fibroblast [7]) | Activity (Fibroblast [8]) | Activity (Fibroblast [11])
Not Active | Stable | Not Active | Active |  |  |  | CC1=C(/C=C/C(C)=C/C=C/C(C)=C/CO)C(C)(C)CCC1 [RETINOL] | 25 | 7.3 | 33 | 1.4 | 1.44 | 
 |  |  |  |  |  |  | CC1=C(/C=C/C(C)=C/C=C/C(C)=C/C(=O)O)C(C)(C)CCC1 [TRETINOIN] |  | 5.4 | 64 | 1.84 | 2.05 | 
 | Stable |  | Active | 18.94 | Stable | Active | CC1=C(/C=C/C(C)=C/C=C/C(C)=C/COC(=O)/C=C(C)/C=C/C=C(C)/C=C/C2=C(C)CCCC2(C)C)C(C)(C)CCC1 [RETINYLRETINOATE] | 40 | 6.7 | 52 | 1.56 | 1.75 | Active
 |  |  |  |  |  |  | CCCCCCCCCCCCCCCC(=O)OC/C=C(C)/C=C/C=C(C)/C=C/C1=C(C)CCCC1(C)C [VITAMIN A PALMITATE] |  |  |  | 1.2 | 1.4 | 
